From patent publication US10363239B2, “Method for inhibiting growth of cancer cells” (Pain Therapeutics, Inc., priority 2013, dated 2019)
Where two headings read alike, the source gives them in different places.

Assays:
[1] = molecular target: FLNA pentapeptide of SEQ ID NO: 1 (Bn-VAKGL) (Homo sapiens, UniProt P21333); assay: FITC-NLX-based FLNA screening assay (inhibition of FITC-naloxone binding to Bn-VAKGL on streptavidin plates); details: 10 nM FITC-NLX
[2] = tested on: mu opiate receptor (MOR); assay: MOR agonist activity using [35S]GTPγS binding assay in striatal membranes; format: biochemical; details: for MOR agonist activity ([35S]GTPγS binding), FLNA-Binding Compound as Agonist 1 μM + BFNA: 1 μM compound + 1 μM β-funaltrexamine
How it was run: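 Striatal membranes (200 μg) were preincubated 5 min at 30 °C in HEPES pH 7.5 with 100 mM NaCl, 1 mM MgCl2 and 0.5 nM [35S]GTPγS, then 5 min more with 0.1–10 μM compound. Gαo was immunoprecipitated and bound radioactivity counted by scintillation.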

[3] = FLNA-binding compound 0.01 μM, read-out: Percent Binding Inhibition
[4] = FLNA-binding compound 0.1 μM, read-out: Percent Binding Inhibition
[5] = FLNA-binding compound 1 μM, read-out: Percent Binding Inhibition
[6] = Series C-2, 0.1 μM compound, relative to DAMGO
[7] = Series C-2, 0.1 μM compound, [35S]GTPγS binding to Gαo, striatal membranes
[8] = Series C-2, 1 μM compound + 1 μM β-FNA
[9] = Series C-2, 1 μM compound + β-FNA, relative to DAMGO + BFNA
[10] = Series C-2, 1 μM compound, relative to DAMGO
[11] = Series C-2, 1 μM compound, [35S]GTPγS binding to Gαo, striatal membranes
[12] = read-out: Percent Binding Inhibition, FLNA-binding compound 0.01 μM
[13] = read-out: Percent Binding Inhibition, FLNA-binding compound 0.1 μM
[14] = read-out: Percent Binding Inhibition, FLNA-binding compound 1 μM
[15] = Series B, 0.1 μM compound, relative to DAMGO
[16] = Series B, 0.1 μM compound, [35S]GTPγS binding to Gαo, striatal membranes
[17] = Series B, 1 μM compound + 1 μM β-FNA
[18] = Series B, 1 μM compound + β-FNA, relative to DAMGO + BFNA
[19] = Series B, 1 μM compound, relative to DAMGO
[20] = Series B, 1 μM compound, [35S]GTPγS binding to Gαo, striatal membranes
[21] = 0.1 μM compound relative to DAMGO
[22] = 1 μM compound + BFNA relative to DAMGO + BFNA
[23] = 1 μM compound relative to DAMGO
[24] = Series C-1, 0.1 μM compound, relative to DAMGO
[25] = Series C-1, 0.1 μM compound, [35S]GTPγS binding to Gαo, striatal membranes
[26] = Series C-1, 1 μM compound + 1 μM β-FNA
[27] = Series C-1, 1 μM compound + β-FNA, relative to DAMGO + BFNA
[28] = Series C-1, 1 μM compound, relative to DAMGO
[29] = Series C-1, 1 μM compound, [35S]GTPγS binding to Gαo, striatal membranes

| Compound | inhibition at 0.01 µM [1, 12] | inhibition at 0.1 µM [1, 13] | inhibition at 1 µM [1, 14] | % DAMGO (0.1 μM) [2, 15] | MOR agonist activity, percent [35S]GTPγS binding at the stated compound concentration [2, 16] | MOR agonist activity, percent [35S]GTPγS binding at the stated compound concentration [2, 17] | % DAMGO + BFNA [2, 18] | % DAMGO (1 μM) [2, 19] | MOR agonist activity, percent [35S]GTPγS binding at the stated compound concentration [2, 20] | further results |
| --- | --- | --- | --- | --- | --- | --- | --- | --- | --- | --- |
| CC(=O)c1ccc(S(=O)(=O)N2CCC3(CC2)NCCS3)cc1 [Compound C0060] | – | – | – | – | – | – | – | – | – | inhibition at 0.01 µM [1, 3]: 60.3%; inhibition at 0.1 µM [1, 4]: 64%; inhibition at 1 µM [1, 5]: 68%; % DAMGO (0.1 μM) [2, 6]: 114.8%; MOR agonist activity, percent [35S]GTPγS binding at the stated compound concentration [2, 7]: 166.5%; MOR agonist activity, percent [35S]GTPγS binding at the stated compound concentration [2, 8]: 143.9%; % DAMGO + BFNA [2, 9]: 327.0%; % DAMGO (1 μM) [2, 10]: 93.9%; MOR agonist activity, percent [35S]GTPγS binding at the stated compound concentration [2, 11]: 218.9% |
| COc1ccc(C(=O)CC2c3c(cc4c(c3OC)OCO4)CC[N+]2(C)C)cc1C (stereo not drawn) [Compound B0021] | 32.5% | 43.1% | 47.6% | 75.9% | 126.9% | 42.9% | 123.6% | 104.7% | 256.4% | – |
| COc1ccc(CCC(=O)CC2c3c(cc4c(c3OC)OCO4)CC[N+]2(C)C)cc1OC (stereo not drawn) [Compound B0042] | 40.8% | 46.4% | 51.6% | 39.6% | 69.9% | 43.1% | 163.9% | 42.3% | 107.5% | – |
| OC(COc1ccc(Br)c(F)c1)CN1CCSCC1 (stereo not drawn) [Compound A0059] | 27.4% | 36.6% | 38.7% | – | – | – | – | – | – | MOR agonist activity ([35S]GTPγS binding), FLNA-Binding Compound as Agonist 0.1 μM ([2]; 0.1 μM compound): 99.2%; % DAMGO (0.1 μM) [2, 21]: 63.5%; MOR agonist activity ([35S]GTPγS binding), FLNA-Binding Compound as Agonist 1 μM ([2]; 1 μM compound): 129.9%; MOR agonist activity ([35S]GTPγS binding), FLNA-Binding Compound as Agonist 1 μM + BFNA [2]: 85.7%; % DAMGO + BFNA [2, 22]: 214.8%; % DAMGO (1 μM) [2, 23]: 56.4% |
| COc1ccc(S(=O)(=O)N2CCSC23CCNCC3)cc1 [S-C0027] | – | – | – | – | – | – | – | – | – | inhibition at 0.01 µM [1, 3]: 39.1%; inhibition at 0.1 µM [1, 4]: 46.5%; inhibition at 1 µM [1, 5]: 53.6%; % DAMGO (0.1 μM) [2, 6]: 74.2%; MOR agonist activity, percent [35S]GTPγS binding at the stated compound concentration [2, 7]: 156.2%; MOR agonist activity, percent [35S]GTPγS binding at the stated compound concentration [2, 8]: 56.2%; % DAMGO + BFNA [2, 9]: 98.1%; % DAMGO (1 μM) [2, 10]: 84.4%; MOR agonist activity, percent [35S]GTPγS binding at the stated compound concentration [2, 11]: 286.8% |
| COc1c2c(cc3c1C(CC(=O)CCc1ccc(Cl)cc1)[N+](C)(C)CC3)OCO2 (stereo not drawn) [Compound B0017] | 28.3% | 36.6% | 44.6% | 58.9% | 99.6% | 49.6% | 75.2% | 45.6% | 122.0% | – |
| COc1ccc(C(=O)CC2c3c(cc4c(c3OC)OCO4)CC[N+]2(C)C)c(F)c1 (stereo not drawn) [Compound B0027] | 40.2% | 46.7% | 49.8% | 82.3% | 140.9% | 21.6% | 41.5% | 100.0% | 266.9% | – |
| O=S(=O)(c1ccc2ccccc2c1)N1CCC2(CC1)OCCN2S(=O)(=O)c1ccc2ccccc2c1 [Compound C0140M] | 42.3% | 49.2% | 54.4% | – | – | – | – | – | – | % DAMGO (0.1 μM) [2, 24]: 85.8%; Concentration of FLNA-Binding Compound as Agonist 0.1 μM [2, 25]: 126.1%; Concentration of FLNA-Binding Compound as Agonist 1 μM + BFNA [2, 26]: 83.0%; % DAMGO + BFNA [2, 27]: 211.2%; % DAMGO (1 μM) [2, 28]: 106.5%; Concentration of FLNA-Binding Compound as Agonist 1 μM [2, 29]: 215.4% |
| COc1ccc(C(=O)CC2c3c(cc4c(c3OC)OCO4)CC[N+]2(C)C)cc1 (stereo not drawn) [Compound B0024] | 34.8% | 43.4% | 47.7% | 93.2% | 155.8% | 20.2% | 58.2% | 116.7% | 285.9% | – |
| O=C1CN(C2CCc3ccccc3C2)C2(CCN(S(=O)(=O)c3ccccc3)CC2)N1 (stereo not drawn) [C0136M(P5)] | 46.7% | 55.2% | 58.2% | – | – | – | – | – | – | % DAMGO (0.1 μM) [2, 6]: 93.4%; MOR agonist activity, percent [35S]GTPγS binding at the stated compound concentration [2, 7]: 176.8%; MOR agonist activity, percent [35S]GTPγS binding at the stated compound concentration [2, 8]: 74.5%; % DAMGO + BFNA [2, 9]: 153.6%; % DAMGO (1 μM) [2, 10]: 95.6%; MOR agonist activity, percent [35S]GTPγS binding at the stated compound concentration [2, 11]: 237.3% |
| CC1CCC(C(C)C)C(OCC(O)CN2CCCCCCC2)C1 (stereo not drawn) [Compound A0014] | – | – | – | – | – | – | – | – | – | inhibition at 0.01 µM [1, 3]: 33.8%; inhibition at 0.1 µM [1, 4]: 39.7%; inhibition at 1 µM [1, 5]: 44.7%; MOR agonist activity ([35S]GTPγS binding), FLNA-Binding Compound as Agonist 0.1 μM ([2]; 0.1 μM compound): 147.0%; % DAMGO (0.1 μM) [2, 21]: 83.2%; MOR agonist activity ([35S]GTPγS binding), FLNA-Binding Compound as Agonist 1 μM ([2]; 1 μM compound): 174.9%; MOR agonist activity ([35S]GTPγS binding), FLNA-Binding Compound as Agonist 1 μM + BFNA [2]: 140.8%; % DAMGO + BFNA [2, 22]: 214.3%; % DAMGO (1 μM) [2, 23]: 67.5% |
| O=S(=O)(c1ccc(Cl)cc1)N1CCC2(CC1)OCCN2S(=O)(=O)c1ccc(Cl)cc1 [Compound C0067] | – | – | – | – | – | – | – | – | – | inhibition at 0.01 µM [1, 3]: 31.3%; inhibition at 0.1 µM [1, 4]: 39.7%; inhibition at 1 µM [1, 5]: 45%; % DAMGO (0.1 μM) [2, 24]: 82.9%; Concentration of FLNA-Binding Compound as Agonist 0.1 μM [2, 25]: 142.7%; Concentration of FLNA-Binding Compound as Agonist 1 μM + BFNA [2, 26]: 33.5%; % DAMGO + BFNA [2, 27]: 97.1%; % DAMGO (1 μM) [2, 28]: 81.5%; Concentration of FLNA-Binding Compound as Agonist 1 μM [2, 29]: 179.0% |
| COc1c2c(cc3c1C(CC(O)CCc1ccccc1)[N+](C)(C)CC3)OCO2 (stereo not drawn) [Compound B0052] | 30.2% | 39.1% | 44.3% | 58.1% | 98.2% | 40.9% | 246.4% | 69.3% | 151.7% | – |
| COc1cc(CC(=O)CC2c3c(cc4c(c3OC)OCO4)CC[N+]2(C)C)cc(OC)c1OC (stereo not drawn) [Compound B0008] | 35.5% | 40.3% | 52.8% | 84.0% | 148.3% | 46.0% | 70.0% | 101.9% | 264.1% | – |
| CC1CCC(C(C)C)C(OCC(O)CN(C(C)C)C(C)C)C1 (stereo not drawn) [Compound A0037] | 49.3% | 51.3% | 56.8% | – | – | – | – | – | – | MOR agonist activity ([35S]GTPγS binding), FLNA-Binding Compound as Agonist 0.1 μM ([2]; 0.1 μM compound): 177.9%; % DAMGO (0.1 μM) [2, 21]: 90.7%; MOR agonist activity ([35S]GTPγS binding), FLNA-Binding Compound as Agonist 1 μM ([2]; 1 μM compound): 236.2%; MOR agonist activity ([35S]GTPγS binding), FLNA-Binding Compound as Agonist 1 μM + BFNA [2]: 104.6%; % DAMGO + BFNA [2, 22]: 141.5%; % DAMGO (1 μM) [2, 23]: 85.6% |
| COc1ccccc1CC(=O)CC1c2c(cc3c(c2OC)OCO3)CC[N+]1(C)C (stereo not drawn) [Compound 5009] | 42.5% | 47.3% | 54.3% | 66.9% | 128.5% | 87.5% | 181.5% | 83.2% | 270.4% | – |
| COc1ccc(C(=O)N2CCC3(CC2)OCCN3C(=O)c2ccc(OC)cc2)cc1 [Compound C0017] | – | – | – | – | – | – | – | – | – | inhibition at 0.01 µM [1, 3]: 28.9%; inhibition at 0.1 µM [1, 4]: 35.4%; inhibition at 1 µM [1, 5]: 40.7%; % DAMGO (0.1 μM) [2, 24]: 87.1%; Concentration of FLNA-Binding Compound as Agonist 0.1 μM [2, 25]: 153.8%; Concentration of FLNA-Binding Compound as Agonist 1 μM + BFNA [2, 26]: 94.1%; % DAMGO + BFNA [2, 27]: 143.2%; % DAMGO (1 μM) [2, 28]: 109.7%; Concentration of FLNA-Binding Compound as Agonist 1 μM [2, 29]: 284.5% |
